The IC50 is the concentration needed to halve the response being measured.

In one test the target is Tubulin. The test can be described thus: Inhibition of tubulin polymerization (unknown origin) pretreated for 15 mins followed by GTP addition by spectrophotometric method. The test is classed as protein-complex assay, Homo sapiens.
Test [1] can be described thus: Cytotoxicity against human MEL28 cells. The test is classed as functional, cell-based. To be noted: SK-MEL-28.
The test system of another test is HT-29. The test can be described thus: Cytotoxicity against human HT-29 cells. The test is classed as functional, cell-based.
For the next test, the system named is A549. Kind of test: Cytotoxicity against human A549 cells. The test is classed as functional, cell-based.
In the next test the test system is P388. The test can be described thus: Cytotoxicity against mouse P388 cells. The test is classed as functional, cell-based.

The structures appear in SMILES notation. Values after ≈ are worked out from the molar mass of the structure shown.

Take `COC1=CC(=O)N(C(=O)[C@@H](OC(=O)[C@@H]2CCCN2C(=O)[C@@H]2CCCN2C(=O)[C@H](C(C)C)N(C)C(=O)[C@@H](NC(=O)[C@H](C(C)C)N(C)C)C(C)C)C(C)C)[C@H]1Cc1ccccc1` [DOLASTATIN 15]: the IC50 at Tubulin came to 23 µM.

Regarding `CC[C@H](C)[C@@H]([C@@H](CC(=O)N1CCC[C@H]1[C@H](OC)[C@@H](C)C(=O)N[C@@H](Cc1ccccc1)c1nccs1)OC)N(C)C(=O)[C@@H](NC(=O)[C@H](C(C)C)N(C)C)C(C)C` [DOLASTATIN-10], at Tubulin, the 50% inhibitory concentration (IC50) turned out to be 1.2 µM.

As to `C=C1C[C@@H]2C/C=C/C(=O)C/C(C)=C\C=C\C(=O)O[C@H]([C@H](O)NC(=O)/C=C\C=C\C)C/C(C)=C/[C@H](C1)O2` [ZAMPANOLIDE], the 50% inhibitory concentration (IC50) (in test [1]; with HT-29; with A549; in the test on P388) was 1 to 5 ng/mL (≈ 2.02 to 10.1 nM) each time.

The values are drawn from ChEMBL document CHEMBL4251663, “Marine Invertebrate Natural Products that Target Microtubules” (J Nat Prod, 2018).
